According to the NIST ThermoML archive (doi:10.1016/j.tca.2014.07.018):

Assay: molar heat capacity at saturation pressure
Conditions: Crystal, Small (less than 1 g) adiabatic calorimetry

C1C2CC3CC1CC(c1nnn[nH]1)(C2)C3 [5-(1-adamantyl)tetrazole]
Conditions	molar heat capacity [J/K/mol]
164.89 K	124.3
166.9 K	125.8
168.9 K	127.4
170.91 K	128.9
172.92 K	130.5
174.93 K	132
176.93 K	133.7
178.93 K	135.1
180.94 K	136.8
182.95 K	138.3
184.97 K	140.1
186.99 K	141.6
189 K	143.3
191.02 K	144.9
193.03 K	146.6
195.05 K	148.4
197.07 K	150.1
199.09 K	151.7
201.1 K	153.4
203.13 K	155.1
205.16 K	156.8
207.18 K	158.6
209.21 K	160.4
211.24 K	162.1
213.27 K	163.9
215.3 K	165.7
217.33 K	167.6
219.37 K	169.4
221.4 K	171.2
223.43 K	173
224.08 K	173.6
225.46 K	174.9
226.05 K	175.4
227.5 K	176.8
228.08 K	177.3
230.12 K	179.2
232.16 K	181.1
234.19 K	183.1
236.23 K	184.9
238.27 K	186.8
240.31 K	188.8
242.35 K	190.8
244.39 K	192.5
246.43 K	194.5
248.47 K	196.4
250.51 K	198.4
252.55 K	200.3
254.59 K	202.2
256.64 K	204.1
258.68 K	206.2
260.73 K	208
262.77 K	209.9
264.81 K	211.9
266.86 K	213.7
268.9 K	215.5
270.94 K	217.3
272.99 K	219.2
275.03 K	221
277.08 K	222.9
279.13 K	224.5
281.18 K	226.3
283.22 K	227.9
285.27 K	229.8
287.32 K	231.5
289.37 K	233.1
291.42 K	234.7
293.46 K	236.3
295.51 K	237.9
297.56 K	239.7
299.61 K	241.3
301.65 K	242.8
303.7 K	244.6
305.75 K	246
307.8 K	247.6
309.86 K	249.2
311.91 K	250.7
313.96 K	252.3
316.02 K	253.9
318.07 K	255.5
320.14 K	256.9
322.2 K	258.6
324.26 K	260.2
326.32 K	261.8
328.38 K	263.2
330.44 K	264.8
332.5 K	266.3
334.57 K	267.8
336.63 K	269.4
338.69 K	270.9
340.76 K	272.4
342.83 K	274.2
344.9 K	275.7
346.97 K	277.1
349.04 K	278.9
351.11 K	280.5
353.2 K	282.1
355.27 K	283.8
357.34 K	285.5
359.41 K	287.2
361.48 K	288.9
363.56 K	290.4
365.63 K	292
367.7 K	293.7
